Measurements as given in publication PMC9851200, “Multiparameter phenotypic screening for endogenous TFEB and TFE3 translocation identifies novel chemical series modulating lysosome function” (Autophagy, 2022).
Where two headings read alike, the source gives them in different places.

Legend:
Details in all cases: PKIS2 primary screening
[1] = test system: endogenous TFEB; assay: TFEB nuclear translocation, immunocytochemistry high-content imaging; assay type: cell-based; also: test concentration or dose not given here
[2] = test system: endogenous TFE3; assay: TFE3 nuclear translocation, immunocytochemistry high-content imaging; assay type: cell-based; also: test concentration or dose not given here
[3] = test system: SH-SY5Y cells; also: reference of the scale not given here
[4] = test system: SH-SY5Y cells; assay: AK (adenylate kinase) release ToxiLight cytotoxicity assay; also: reference of the scale not given here
[5] = test system: SH-SY5Y cells; assay: Nuclear count from microscopy images (cellular growth and toxicity); also: reference of the scale not given here

In the case of `Cc1c2ccc(N(C)c3ccnc(Nc4cccc(S(N)(=O)=O)c4)n3)cc2nn1Cc1ccccc1` [GW787226], the TFEB % [1] is reported as 8.93%, the TFE3 % [2] is reported as 15.06% and the “DQ Intensity” value ([3]; DQ Red BSA intensity) is reported as 91.24. The “DQ Spot” value ([3]; DQ Red BSA spot count) was 90.69, the AK [4] was 80.53 and the “Nuclear Count” value [5] was 121.46.

With `COc1ccc(Nc2nccc(NCCNC(=O)Nc3cc(C)ccc3C)n2)cc1` [GSK1379899] the TFEB % [1] was 7.12%, the TFE3 % [2] was 15.31% and the “DQ Intensity” value ([3]; DQ Red BSA intensity) was 123.56. The “DQ Spot” value ([3]; DQ Red BSA spot count) was 108.96, the AK [4] was 79.47 and the “Nuclear Count” value [5] was 88.82.

`Cc1cccc(-c2cc(-c3c[nH]nc3-c3ccccn3)ccn2)c1` [UNC10225499A] was tested, and the TFEB % [1] was 5.43%, the TFE3 % [2] was 5.64% and the “DQ Intensity” value ([3]; DQ Red BSA intensity) was 88.33. The “DQ Spot” value ([3]; DQ Red BSA spot count) was 90.33, the AK [4] was 88.92 and the “Nuclear Count” value [5] was 133.11.

With `Cc1nnc(-c2ccc(C)c(-c3ccc(C(=O)O)cc3)c2)o1` [UNC10225501A] the TFEB % [1] was 7.30%, the TFE3 % [2] was 10.21% and the “DQ Intensity” value [3] was 75.58. For the same compound, the “DQ Spot” value [3] was 83.30, the AK [4] was 95.30 and the “Nuclear Count” value [5] was 117.94.

`Clc1ccc(-c2nn3ncccc3c2-c2ccnc(Nc3ccc4c(c3)OCCO4)n2)cc1` [UNC10225358A] was tested, and the TFEB % [1] was 8.16%, the TFE3 % [2] was 11.64% and the “DQ Intensity” value [3] was 88.44. The “DQ Spot” value [3] was 98.66, the AK [4] was 157.53 and the “Nuclear Count” value [5] was 125.14.

`O=C(O)C(F)(F)F.O=c1[nH]ccc2nc(N[C@@H]3CCNC3)nc(Nc3cc(Cl)cc(Cl)c3)c12` [UNC10225257A] was tested, and the TFEB % [1] was 7.01%, the TFE3 % [2] was 8.28% and the “DQ Intensity” value [3] was 65.99. The “DQ Spot” value [3] was 83.26, the AK [4] was 117.20 and the “Nuclear Count” value [5] was 111.57.

In the case of `COc1ccc(Nc2nccc(N3CCC(NC(=O)Nc4cccc(C(C)=O)c4)C3)n2)cc1` (stereo not drawn) [GSK1379731], the TFEB % [1] is reported as 9.04%, the TFE3 % [2] is reported as 14.27% and the “DQ Intensity” value ([3]; DQ Red BSA intensity) is reported as 109.14. For the same compound, the “DQ Spot” value ([3]; DQ Red BSA spot count) was 92.48, the AK [4] was 78.89 and the “Nuclear Count” value [5] was 122.85.

`COC(=O)Nc1nc2ccc(Oc3ccc(NC(=O)Nc4cc(F)ccc4F)cc3)cc2[nH]1` [GW701424] was tested, and the TFEB % [1] was 4.66%, the TFE3 % [2] was 22.54% and the “DQ Intensity” value ([3]; DQ Red BSA intensity) was 130.75. For the same compound, the “DQ Spot” value ([3]; DQ Red BSA spot count) was 124.31, the AK [4] was 149.19 and the “Nuclear Count” value [5] was 68.78.

`Nc1nccc(-c2c(-c3ccc(F)cc3)ncn2C2CCN(Cc3ccccc3)CC2)n1` [UNC10225058A] was tested, and the TFEB % [1] was 3.25%, the TFE3 % [2] was 7.38% and the “DQ Intensity” value [3] was 142.65. For the same compound, the “DQ Spot” value [3] was 129.81, the AK [4] was 75.20 and the “Nuclear Count” value [5] was 98.98.

In the case of `COC(=O)Nc1nc2ccc(Oc3ccc(NC(=O)Nc4cc(C(F)(F)F)ccc4Cl)cc3)cc2[nH]1` [GW697465], the TFEB % [1] is reported as 5.88%, the TFE3 % [2] is reported as 30.84% and the “DQ Intensity” value ([3]; DQ Red BSA intensity) is reported as 71.39. For the same compound, the “DQ Spot” value ([3]; DQ Red BSA spot count) was 100.12, the AK [4] was 89.89 and the “Nuclear Count” value [5] was 70.87.

In the case of `O=c1cc(N2CCOCC2)nc2n(Cc3ccc(F)c(Cl)c3)ccn12` [UNC10225343A], the TFEB % [1] is reported as 4.66%, the TFE3 % [2] is reported as 7.68% and the “DQ Intensity” value [3] is reported as 102.25. The “DQ Spot” value [3] was 107.68, the AK [4] was 80.61 and the “Nuclear Count” value [5] was 115.81.

For `Clc1cc(Cl)cc(Nc2ccnc(Nc3cc(Cl)cc(Cl)c3)n2)c1` [GSK175726], the TFEB % [1] was 3.77%, the TFE3 % [2] was 10.08% and the “DQ Intensity” value ([3]; DQ Red BSA intensity) was 98.51. For the same compound, the “DQ Spot” value ([3]; DQ Red BSA spot count) was 117.48, the AK [4] was 105.62 and the “Nuclear Count” value [5] was 91.70.

For `Oc1cc(Nc2ccnc3cc(I)ccc23)ccc1F` [UNC10225441A], the TFEB % [1] was 12.97%, the TFE3 % [2] was 8.03% and the “DQ Intensity” value ([3]; DQ Red BSA intensity) was 124.88. For the same compound, the “DQ Spot” value ([3]; DQ Red BSA spot count) was 110.03, the AK [4] was 73.72 and the “Nuclear Count” value [5] was 104.34.

In the case of `Cn1cc(-c2ccc3c(c2)CCN3C(=O)Cc2cc(F)cc(F)c2F)c2c(N)ncnc21` [UNC10225071A], the TFEB % [1] is reported as 5.81%, the TFE3 % [2] is reported as 19.64% and the “DQ Intensity” value [3] is reported as 128.82. For the same compound, the “DQ Spot” value [3] was 133.47, the AK [4] was 97.57 and the “Nuclear Count” value [5] was 91.42.

For `Cc1cc(N2Cc3ccccc3C2)nc(Nc2ccc(S(=O)(=O)N3CCOCC3)cc2)n1` [GSK1669917], the TFEB % [1] was 1.55%, the TFE3 % [2] was 8.23% and the “DQ Intensity” value ([3]; DQ Red BSA intensity) was 64.14. The “DQ Spot” value ([3]; DQ Red BSA spot count) was 76.32, the AK [4] was 117.66 and the “Nuclear Count” value [5] was 138.98.

`Cl.Cl.Cl.Fc1ccc(-c2ncn(C3CCNCC3)c2-c2ccnc(Nc3ccccc3)n2)cc1` [UNC10225420B] was tested, and the TFEB % [1] was 2.15%, the TFE3 % [2] was 11.83% and the “DQ Intensity” value [3] was 154.30. The “DQ Spot” value [3] was 110.72, the AK [4] was 83.09 and the “Nuclear Count” value [5] was 69.94.

`O=C(Nc1ccc2c(c1)OCO2)NC1CCN(c2ccnc(NCc3ccc(F)cc3)n2)CC1` [GSK1379859] was tested, and the TFEB % [1] was 6.05%, the TFE3 % [2] was 12.41% and the “DQ Intensity” value ([3]; DQ Red BSA intensity) was 77.50. For the same compound, the “DQ Spot” value ([3]; DQ Red BSA spot count) was 79.61, the AK [4] was 102.69 and the “Nuclear Count” value [5] was 98.68.

`COc1ccc(Nc2nccc(-c3ccc(NC(=O)c4cc5cc(F)ccc5[nH]4)cc3)n2)cc1` [GSK1229496] was tested, and the TFEB % [1] was 5.47%, the TFE3 % [2] was 10.21% and the “DQ Intensity” value ([3]; DQ Red BSA intensity) was 79.73. The “DQ Spot” value ([3]; DQ Red BSA spot count) was 89.01, the AK [4] was 76.92 and the “Nuclear Count” value [5] was 129.71.
